Test system: B cell receptor-mediated activation of B cells in human blood (CD69 expression)
Experiment: Inhibition of B cell activation in whole blood measured by CD69 expression
Assay type: cell-based
Conditions: anti-IgM stimulation, 20 h, 50% decrease of CD69-positive cells that are also CD20-positive
Procedure: Inhibition of B Cell Activation in Whole Blood Measured by CD69 Expression
A procedure to test the ability of Btk inhibitors to suppress B cell receptor-mediated activation of B cells in human blood is as follows:
Human whole blood (HWB) is obtained from healthy volunteers, with the following restrictions: 24 hr drug-free, non-smokers. Blood is collected by venipuncture into Vacutainer tubes anticoagulated with sodium heparin. Test compounds are diluted to ten times the desired starting drug concentration in PBS (20×), followed by three-fold serial dilutions in 10% DMSO in PBS to produce a nine point dose-response curve. 5.5 μl of each compound dilution is added in duplicate to a 2 ml 96-well V bottom plate (Analytical Sales and Services, #59623-23); 5.5 μl of 10% DMSO in PBS is added to control and no-stimulus wells. HWB (100 μl) is added to each well, and after mixing the plates are incubated at 37 C, 5% CO2, 100% humidity for 30 minutes. Goat F(ab′)2 anti-human IgM (Southern Biotech, #2022-14) (10 μl of a 500 μg/ml solution, 50 μg/ml final concentration) is added to each well (except the no-stimulus wells) with mixing and the plates are incubated for an additional 20 hours.
At the end of the 20 hour incubation, samples are incubated with florescent-probe-labeled anti-bodies (15 μl PE Mouse anti-Human CD20, BD Pharmingen, #555623, and/or 20 ul APC Mouse anti-Human CD69, BD Pharmingen #555533) for 30 minutes, at 37 C, 5% CO2, 100% humidity. Included are induced control, unstained and single stains for compensation adjustments and initial voltage settings. Samples are then lysed with 1 ml of 1× Pharmingen Lyse Buffer (BD Pharmingen #555899), and plates are centrifuged at 1800 rpm for 5 minutes. Supernatants are removed via suction and the remaining pellets are lysed again with another 1 ml of 1× Pharmingen Lyse Buffer, and plates are spun down as before. Supernatants are aspirated and remaining pellets are washed in FACs buffer (PBS+1% FBS). After a final spin, the supernantants are removed and pellets are resuspended in 180 μl of FACs buffer. Samples are transferred to a 96 well plate suitable to be run on the HTS 96 well system on the BD LSR II flow cytometer.
Using appropriate excitation and emission wavelengths for the fluorophores used, data are acquired and percent positive cell values are obtained using Cell Quest Software. Results are initially analyzed by FACS analysis software (Flow Jo). […] The IC50 values are calculated using XLfit software version 3, equation 201.

Compound | IC50
Cn1cc(-c2cccc(-n3ccc4cc(C5CC5)cc(F)c4c3=O)c2CO)cc(Nc2ccc(C(C)(C)C(=O)O)cn2)c1=O [Example I-68, 2-(6-{5-[3-(6-Cyclopropyl-8-fluoro-1-oxo-1H-isoquinolin-2-yl)-2-hydroxymethyl-phenyl]-1-methyl-2-oxo-1,2-dihydro-pyridin-3-ylamino}-pyridin-3-yl)-2-methyl-propionic acid] | 213 nM
Cn1cc(-c2cccc(N3CCc4cc(C5CC5)cc(C#N)c4C3=O)c2CO)cc(Nc2ccc(S(C)(=O)=O)cn2)c1=O [Example I-13, 6-Cyclopropyl-2-{2-hydroxymethyl-3-[5-(5-methanesulfonyl-pyridin-2-ylamino)-1-methyl-6-oxo-1,6-dihydro-pyridin-3-yl]-phenyl}-1-oxo-1,2,3,4-tetrahydro-isoquinoline-8-carbonitrile] | 4040 nM
CN1CCN(Cc2ccc(Nc3cc(-c4cccc(N5CCc6cc(C7CC7)cc(F)c6C5=O)c4CO)cn(C)c3=O)nc2)CC1 [Example I-11, 6-Cyclopropyl-8-fluoro-2-(2-hydroxymethyl-3-{1-methyl-5-[5-(4-methyl-piperazin-1-ylmethyl)-pyridin-2-ylamino]-6-oxo-1,6-dihydro-pyridin-3-yl}-phenyl)-3,4-dihydro-2H-isoquinolin-1-one] | 58 nM
CCn1cc(Nc2nc(-c3cccc(-n4ccc5cc(C(C)(C)O)cc(F)c5c4=O)c3CO)cn(C)c2=O)cn1 [Example I-81, 2-{3-[6-(1-Ethyl-1H-pyrazol-4-ylamino)-4-methyl-5-oxo-4,5-dihydro-pyrazin-2-yl]-2-hydroxymethyl-phenyl}-8-fluoro-6-(1-hydroxy-1-methyl-ethyl)-2H-isoquinolin-1-one] | 13 nM
Cn1cc(-c2cccc(-n3ccc4cc(C5CC5)cc(F)c4c3=O)c2CO)cc(Nc2ccc(N3CCNCC3)cn2)c1=O [Example I-52, 6-Cyclopropyl-8-fluoro-2-{2-hydroxymethyl-3-[1-methyl-6-oxo-5-(5-piperazin-1-yl-pyridin-2-ylamino)-1,6-dihydro-pyridin-3-yl]-phenyl}-2H-isoquinolin-1-one] | 57 nM
CN1CCN(Cc2ccc(Nc3cc(-c4cccc(-n5ccc6cc(C7CC7)cc(F)c6c5=O)c4CO)cn(C)c3=O)nc2)CC1 [Example I-73, 6-Cyclopropyl-8-fluoro-2-(2-hydroxymethyl-3-{1-methyl-5-[5-(4-methyl-piperazin-1-ylmethyl)-pyridin-2-ylamino]-6-oxo-1,6-dihydro-pyridin-3-yl}-phenyl)-2H-isoquinolin-1-one] | 24 nM
CC(O)Cn1cc(Nc2nc(-c3cccc(-n4ccc5cc(C6CC6)cc(F)c5c4=O)c3CO)cn(C)c2=O)cn1 (centres unmarked) [Example I-82, 6-Cyclopropyl-8-fluoro-2-(2-hydroxymethyl-3-{6-[1-(2-hydroxy-propyl)-1H-pyrazol-4-ylamino]-4-methyl-5-oxo-4,5-dihydro-pyrazin-2-yl}-phenyl)-2H-isoquinolin-1-one] | 57 nM
CN(C)C(=O)C(C)(C)c1ccc(Nc2cc(-c3cccc(-n4ccc5cc(C6CC6)cc(F)c5c4=O)c3CO)cn(C)c2=O)nc1 [Example I-70, 2-(6-{5-[3-(6-Cyclopropyl-8-fluoro-1-oxo-1H-isoquinolin-2-yl)-2-hydroxymethyl-phenyl]-1-methyl-2-oxo-1,2-dihydro-pyridin-3-ylamino}-pyridin-3-yl)-N,N-dimethyl-isobutyramide] | 22 nM
CN1CCN(C)C(c2ccc(Nc3nc(-c4cccc(-n5ncc6cc(C(C)(C)C)cc(F)c6c5=O)c4CO)cn(C)c3=O)cc2)C1=O (centres unmarked) [Example I-89, 6-tert-Butyl-2-(3-{6-[4-(1,4-dimethyl-3-oxo-piperazin-2-yl)-phenylamino]-4-methyl-5-oxo-4,5-dihydro-pyrazin-2-yl}-2-hydroxymethyl-phenyl)-8-fluoro-2H-phthalazin-1-one] | 12 nM
CC(O)c1ccc(Nc2cc(-c3cccc(-n4ccc5cc(C6CC6)cc(F)c5c4=O)c3CO)cn(C)c2=O)nc1 (centres unmarked) [Example I-74, 6-Cyclopropyl-8-fluoro-2-(3-{5-[5-(1-hydroxy-ethyl)-pyridin-2-ylamino]-1-methyl-6-oxo-1,6-dihydro-pyridin-3-yl}-2-hydroxymethyl-phenyl)-2H-isoquinolin-1-one] | 29 nM

More lines, in order of falling IC50, values ahead:

IC50 | Compound
2260 nM | Cn1cc(-c2cccc(-n3ncc4cc(C(C)(C)C)cc(F)c4c3=O)c2CO)cc(Nc2ccc(N3CC[N+](C)([O-])CC3)cn2)c1=O [Example I-45, 6-tert-Butyl-8-fluoro-2-(2-hydroxymethyl-3-{1-methyl-5-[5-(4-methyl-4-oxy-piperazin-1-yl)-pyridin-2-ylamino]-6-oxo-1,6-dihydro-pyridin-3-yl}-phenyl)-2H-phthalazin-1-one]
392 nM | Cn1ccc(Nc2cc(-c3cccc(-n4ncc5cc(C(C)(C)C)cc(F)c5c4=O)c3CO)cn(C)c2=O)nc1=O [Example I-23, 6-tert-Butyl-8-fluoro-2-{2-hydroxymethyl-3-[1-methyl-5-(1-methyl-2-oxo-1,2-dihydro-pyrimidin-4-ylamino)-6-oxo-1,6-dihydro-pyridin-3-yl]-phenyl}-2H-phthalazin-1-one]
218 nM | CCc1ccc(Nc2cc(-c3cccc(-n4ncc5cc(C(C)(C)C)cc(F)c5c4=O)c3CO)cn(C)c2=O)nc1 [Example I-33, 6-tert-Butyl-2-{3-[5-(5-ethyl-pyridin-2-ylamino)-1-methyl-6-oxo-1,6-dihydro-pyridin-3-yl]-2-hydroxymethyl-phenyl}-8-fluoro-2H-phthalazin-1-one]
16 nM | CN1CCN(c2ccc(Nc3cc(-c4cccc(-n5ccc6cc(C7(C)CC7)cc(F)c6c5=O)c4CO)cn(C)c3=O)nc2)CC1 [Example I-55, 8-Fluoro-2-(2-hydroxymethyl-3-{1-methyl-5-[5-(4-methyl-piperazin-1-yl)-pyridin-2-ylamino]-6-oxo-1,6-dihydro-pyridin-3-yl}-phenyl)-6-(1-methyl-cyclopropyl)-2H-isoquinolin-1-one]
14 nM | CN(C)C(=O)C(C)(C)c1ccc(Nc2cc(-c3cccc(-n4ncc5cc(C(C)(C)C)cc(F)c5c4=O)c3CO)cn(C)c2=O)nc1 [Example I-22, 2-(6-{5-[3-(6-tert-Butyl-8-fluoro-1-oxo-1H-phthalazin-2-yl)-2-hydroxymethyl-phenyl]-1-methyl-2-oxo-1,2-dihydro-pyridin-3-ylamino}-pyridin-3-yl)-N,N-dimethyl-isobutyramide]
11 nM | Cn1cc(-c2cccc(-n3ncc4cc(C(C)(C)C)cc(F)c4c3=O)c2CO)cc(Nc2ccc(S(C)(=O)=O)cn2)c1=O [Example I-18, 6-tert-Butyl-8-fluoro-2-{2-hydroxymethyl-3-[5-(5-methanesulfonyl-pyridin-2-ylamino)-1-methyl-6-oxo-1,6-dihydro-pyridin-3-yl]-phenyl}-2H-phthalazin-1-one]
10 nM | CN1CC(Oc2ccc(Nc3cc(-c4cccc(-n5ncc6cc(C(C)(C)C)cc(F)c6c5=O)c4CO)cn(C)c3=O)nc2)C1 [Example I-30, 6-tert-Butyl-8-fluoro-2-(2-hydroxymethyl-3-{1-methyl-5-[5-(1-methyl-azetidin-3-yloxy)-pyridin-2-ylamino]-6-oxo-1,6-dihydro-pyridin-3-yl}-phenyl)-2H-phthalazin-1-one]
